Results taken from patent US20250115634A1, “LIGAND, METHOD FOR PREPARING SAME, AND USE THEREOF” (priority 2022, published 2025).

Tests used:
ASGPR receptor [1] = molecular target: T1, ASGPR receptor (Mus musculus, UniProt P24721+P34927); experiment: Binding of Cy5-labelled ligands to ASGPR on primary mouse liver cells (Kd); settings: C57 mouse primary liver cells, incubated 37° C. in the dark for 30 min, trypsin to remove surface fluorescence
T1 construct: C57 mouse primary liver cells were isolated; endogenous in cells; host or cells: C57 mouse primary liver cells
T1 sequence (P34927 1-284): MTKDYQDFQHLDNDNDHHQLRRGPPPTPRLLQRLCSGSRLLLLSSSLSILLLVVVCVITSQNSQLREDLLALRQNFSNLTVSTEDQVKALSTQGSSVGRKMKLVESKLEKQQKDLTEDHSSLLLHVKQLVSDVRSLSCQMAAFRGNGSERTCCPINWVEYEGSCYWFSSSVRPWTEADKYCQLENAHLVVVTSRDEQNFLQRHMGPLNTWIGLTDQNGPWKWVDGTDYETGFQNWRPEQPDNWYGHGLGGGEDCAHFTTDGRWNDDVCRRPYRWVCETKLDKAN
T1 sequence (P24721 1-301): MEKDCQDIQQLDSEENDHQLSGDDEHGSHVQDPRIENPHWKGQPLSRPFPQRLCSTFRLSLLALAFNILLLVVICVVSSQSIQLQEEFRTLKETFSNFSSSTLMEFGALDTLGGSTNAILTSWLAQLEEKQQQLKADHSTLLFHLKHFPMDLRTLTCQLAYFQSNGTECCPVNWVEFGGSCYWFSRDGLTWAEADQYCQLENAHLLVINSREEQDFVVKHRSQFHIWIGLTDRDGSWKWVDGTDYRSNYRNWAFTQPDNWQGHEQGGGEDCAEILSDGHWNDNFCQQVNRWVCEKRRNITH
Method: (§1) The binding rate of the ligand of the present disclosure to the ASGPR receptor of liver cancer cells was tested, with the ligand with hepatocellular ASGPR-targeting property, loaded in Inclisiran, a small interfering nucleic acid drug marketed by Alnylam, as a positive control (PC).
The ligand-receptor dissociation constant (Kd, which is the drug concentration required for half of the maximum effect, i.e. 50% of the receptors are occupied) was used as a measure of ligand-receptor binding capacity; and the lower the Kd value, the higher the binding capacity.
C57 mouse primary liver cells were isolated, and the cells were in a good state, had viability of 92%, and were at a density of 2×10^5 cells/400 μL.
The test compounds were dissolved with PBS and then diluted with complete medium for primary liver cells to various concentration gradients.
The cells was added with 100 μL of the test compound solution prepared according to the set concentration gradients (the test compounds was first prepared with PBS into a stock solution, which was then diluted to the set concentration gradients with complete medium) and incubated at 37° C. in the dark for 30 min.
After incubation, the cells were washed once with 500 μL of PBS.
The cells were added with typsin to remove fluorescence on the cell surface.
The cells were washed again with 500 μL of PBS and detected on machine.

ASGPR receptor [2] = molecular target: T2, ASGPR receptor (Homo sapiens, UniProt P07306+P07307); experiment: Binding of Cy5-labelled ligands to ASGPR on HepG2 cell line (Kd); settings: HepG2 cells, incubated at room temperature in the dark for 30 min
T2 construct: HepG2 cells grown to confluence of greater than 80%; endogenous in cells; host or cells: HepG2
T2 sequence (P07306 1-291): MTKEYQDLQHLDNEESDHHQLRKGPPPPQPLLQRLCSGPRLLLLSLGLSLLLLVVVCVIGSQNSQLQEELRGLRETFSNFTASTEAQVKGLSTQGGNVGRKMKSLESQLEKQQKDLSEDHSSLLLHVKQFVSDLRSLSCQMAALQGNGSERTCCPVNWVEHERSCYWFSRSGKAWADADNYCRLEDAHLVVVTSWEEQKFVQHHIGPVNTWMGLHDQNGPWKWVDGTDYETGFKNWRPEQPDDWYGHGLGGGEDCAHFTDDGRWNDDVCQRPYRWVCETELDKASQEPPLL
T2 sequence (P07307 1-311): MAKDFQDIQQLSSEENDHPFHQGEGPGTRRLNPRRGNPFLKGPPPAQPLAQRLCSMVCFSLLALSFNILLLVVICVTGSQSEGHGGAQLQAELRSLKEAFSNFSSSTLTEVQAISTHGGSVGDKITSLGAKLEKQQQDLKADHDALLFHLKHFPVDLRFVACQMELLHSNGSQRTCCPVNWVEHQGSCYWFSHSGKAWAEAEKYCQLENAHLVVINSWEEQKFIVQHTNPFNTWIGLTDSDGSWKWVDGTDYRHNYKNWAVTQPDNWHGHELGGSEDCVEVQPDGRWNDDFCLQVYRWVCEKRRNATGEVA
Method: as §1
The ligand-receptor dissociation constant (Kd, which is the drug concentration required for half of the maximum effect, i.e. 50% of the receptors are occupied) was used as a measure of ligand-receptor binding capacity, and the lower the Kd value, the higher the binding capacity.
• 1. HepG2 cells grown to confluence of greater than 80% and in a good state were digested, centrifuged and counted. • 2. The test compounds were diluted with PBS to various concentration gradients. • 3. The cells were washed once with PBS, added with 100 μL of the prepared compounds, and incubated at room temperature in the dark for 30 min. • 4. After incubation, the cells were washed twice with 1 mL of PBS and detected on machine.

CC[N+]1=C(/C=C/C=C/C=C2/c3ccccc3N(CCCCCC(=O)NCCCC(=O)CCCCCCCCCCC(=O)N3C[C@H](OCC(=O)NCCOCCOCCOC4OC(CO)C(O)C(O)C4NC(C)=O)C[C@H]3C(=O)NC(COCCC(=O)NCCOCCOCCOC3OC(CO)C(O)C(O)C3NC(C)=O)COCCC(=O)NCCOCCOCCOC3OC(CO)C(O)C(O)C3NC(C)=O)C2(C)C)C(C)(C)c2ccccc21 (some centres unmarked) [TC12A-Cy5]
Kd (ASGPR receptor [1]): 0.696 nM

CC[N+]1=C(/C=C/C=C/C=C2/c3ccccc3N(CCCCCC(=O)NCCNC(=O)CCC(=O)Nc3cc(C(=O)NCCOCCOC4OC(CO)C(O)C(O)C4NC(C)=O)cc(C(=O)Nc4cc(C(=O)NCCOCCOC5OC(CO)C(O)C(O)C5NC(C)=O)cc(C(=O)NCCOCCOC5OC(CO)C(O)C(O)C5NC(C)=O)c4)c3)C2(C)C)C(C)(C)c2ccccc21 (centres unmarked) [TC17A-Cy5]
Kd (ASGPR receptor [1]): 1.26 nM

CC[N+]1=C(/C=C/C=C/C=C2/c3ccccc3N(CCCCCC(=O)NCCNC(=O)CCCCCCCCCCCNC(=O)[C@H](CNC(=O)C(C)(COCC(=O)NCCOCCOC3OC(CO)C(O)C(O)C3NC(C)=O)COCC(=O)NCCOCCOC3OC(CO)C(O)C(O)C3NC(C)=O)NC(=O)C(C)(CCCC(=O)NCCOCCOC3OC(CO)C(O)C(O)C3NC(C)=O)COCC(=O)NCCOCCOC3OC(CO)C(O)C(O)C3NC(C)=O)C2(C)C)C(C)(C)c2ccccc21 (some centres unmarked) [TEC06A-Cy5]
Kd (ASGPR receptor [1]): 0.496 nM

CC[N+]1=C(/C=C/C=C/C=C2/c3ccccc3N(CCCCCC(=O)NCCNC(=O)CCCCCCCCCCC(=O)N3C[C@H](OCC(=O)NCCOCCOC4OC(CO)C(O)C(O)C4NC(C)=O)C[C@H]3C(=O)NC(C)(COCCC(=O)NCCOCCOC3OC(CO)C(O)C(O)C3NC(C)=O)COCCC(=O)NCCOCCOC3OC(CO)C(O)C(O)C3NC(C)=O)C2(C)C)C(C)(C)c2ccccc21 (some centres unmarked) [TC10A-Cy5]
Kd (ASGPR receptor [1]): 0.867 nM

CC[N+]1=C(/C=C/C=C/C=C2/c3ccccc3N(CCCCCC(=O)NCCNC(=O)CCCCCCCCCCCNC(COCCC(=O)NCCCNC(=O)CCCCOC3OC(CO)C(O)C(O)C3NC(C)=O)(COCCC(=O)NCCCNC(=O)CCCCOC3OC(CO)C(O)C(O)C3NC(C)=O)COCCC(=O)NCCCNC(=O)CCCCOC3OC(CO)C(O)C(O)C3NC(C)=O)C2(C)C)C(C)(C)c2ccccc21 (centres unmarked) [PC-Cy5, reference compound]
Kd (ASGPR receptor [2]): 40.2 nM | Kd (ASGPR receptor [1]): 0.408 nM

CC[N+]1=C(/C=C/C=C/C=C2/c3ccccc3N(CCCCCC(=O)NCCNC(=O)CCNC(=O)[C@H](CNC(=O)C(C)(COCC(=O)NCCOCCOC3OC(CO)C(O)C(O)C3NC(C)=O)COCC(=O)NCCOCCOC3OC(CO)C(O)C(O)C3NC(C)=O)NC(=O)C(C)(COCC(=O)NCCOCCOC3OC(CO)C(O)C(O)C3NC(C)=O)COCC(=O)NCCOCCOC3OC(CO)C(O)C(O)C3NC(C)=O)C2(C)C)C(C)(C)c2ccccc21 (some centres unmarked) [TEC02A-Cy5]
Kd (ASGPR receptor [2]): 20.7 nM | Kd (ASGPR receptor [1]): 0.198 nM
